Assay results published in US10010560B2, “Small molecule HSP70 inhibitors” (THE TRUSTEES OF THE UNIVERSITY OF PENNSYLVANIA, priority 2014, dated 2018).
Read-outs that look alike come from different tables or passages of the source.

Tests used:
[1] = molecular target: T1, ADP-DnaK (WT, aa 1-638) (Escherichia coli, UniProt P0A6Y8); assay: ITC binding to ADP-bound full-length DnaK; design: species or system E. coli
T1 construct: Full-length recombinant proteins of HSP70 (aa 1-641) as well as DnaK (aa 1-638); His6 (N); made in house; host or cells: E. coli BL21 Star (DE3)
Experimental: For isothermal titration calorimetry studies, all HSP70 and DnaK variants were dialyzed extensively against the buffers as noted below under the section entitled “Isothermal Titration calorimetry Studies”. The dialyzed proteins were subsequently microcentrifugated at 15,000×g for 5 min at 4° C. and aliquots of the soluble proteins were stored at −80° C.
All ITC experiments were performed using a MicroCal VP-ITC isothermal titration calorimeter (MicroCal). Both full-length HSP70 and DnaK proteins and DnaK (aa 393-507) proteins were prepared in 1 mM Tris-HCl (pH 7.4) buffer containing 3% dimethylsulfoxide (DMSO). The HSP70 (aa 386-616) protein was prepared in buffer containing 3% DMSO and 10 mM Tris-HCl, pH 7. The syringe was loaded with purified protein in either 1 mM Tris-HCl (pH 7.4) buffer containing 3% DMSO or 10 mM Tris-HCl (pH 7) buffer containing 3% DMSO. […] All solutions were degassed for 5 min.
The titrations involving the full-length purified proteins were performed at 25° C. with injection volumes of 12 μL and a spacing of 300 s. The titrations involving the purified HSP70 (aa 386-616) and DnaK (aa 393-507) were performed at 42° C. with injection volumes of 12 μL and a spacing of 300 s. Heat from the pre-injection was not used during fitting. […]

[2] = molecular target: T2, ATP-bound DnaK (Escherichia coli, UniProt P0A6Y8); assay: ITC binding to ATP-bound DnaK; design: species or system E. coli; details: in words
T2 construct: Full-length recombinant proteins of HSP70 (aa 1-641) as well as DnaK (aa 1-638); His6 (N); made in house; host or cells: E. coli BL21 Star (DE3)
From the text: The human stress-inducible HSP70 (residues 1-641 or 386-616 of SEQ ID NO: 2) and E. coli DnaK (residues 1-638, 389-607, or 393-507 of SEQ ID NO: 4) were cloned into the pET25 vector (EMD Millipore Chemicals, Inc., Billerica, Mass., USA) between the NdeI and XhoI restriction sites. The full-length HSP70 and DnaK mutants were constructed by PCR-based site-directed mutagenesis using the QuikChange™ Site-Directed Mutagenesis Kit (Agilent Technologies, Inc., Santa Clara, Calif., USA). All plasmid inserts were verified by DNA sequencing. All HSP70 and DnaK variants were produced with a N-terminal His6-tag in the E. coli BL21 Star (DE3) strain (Invitrogen catalog number C6010-03). The resulting strains were grown at 37° C. in LB medium containing 50 μg/mL of carbenicillin (Sigma-Aldrich Co., St. Louis, Mo., USA). At an OD600 about 0.3 to about 0.5, protein expression was induced with 0.5 mM isopropyl-β-D-thiogalactopyranoside (IPTG), and cells were subsequently grown at 25° C. for about 16 h. Cells were collected by centrifugation and resuspended in the Bugbuster® Master Mix (EMD Millipore Chemicals catalog number 71456-4), supplemented with protease inhibitors, 1 mM diethiothreitol (DTT) and 20 mM imidazole. The His6-tagged fusion proteins were isolated on Ni^2+-chelating resins (Ni-NTA Superflow, Qiagen catalog number 30410) by standard procedures. […]

[3] = test system: Cyclophilin D (Cyp-D); assay: Purified mitochondria from H1299 cells, western blot for Cyp-D; format: cell-based
From the text: FIGS. 5A-5F illustrates that PET-16 leads to loss of mitochondrial protein Cyclophilin D and impairs bioenergetics in tumor cells. FIGS. 5A-5D are western blots of HSP70, which is present at mitochondria of tumor H1299 cells but not in normal tissue, such as liver. The constitutively expressed 70 kDa family members, HSC70 and GRP75, are present in mitochondria of normal cells. Equal amounts of whole cell (WC)-, cytosolic (cyto)-, and mitochondrial (mito)-extracts prepared from cell lines H1299 (A, C) and MIA PaCa-2 (B) or normal (liver) cells (C, D) were examined by western blot analysis for the presence of the proteins indicated. […] Decreases of AlamarBlue® fluorescence, indicative of mitochondrial damage, are noted in PET-16-treated tumor cells (melanoma tumor cell line WM88 (-), melanoma tumor cell line WM3000 (×), melanoma tumor cell line WM852 (*), human melanoma 451 Lu cells (●), and melanoma tumor cell line WM989 (|), but not normal cells (nontransformed human fibroblasts (IMR90-♦) and primary melanocytes (▪)). Values are normalized to the vehicle-treated cells. Error bars represent standard deviation (s.d.) of four independent experiments. […]

T2 sequence (P0A6Y8 whole entry, the tested form may be a part): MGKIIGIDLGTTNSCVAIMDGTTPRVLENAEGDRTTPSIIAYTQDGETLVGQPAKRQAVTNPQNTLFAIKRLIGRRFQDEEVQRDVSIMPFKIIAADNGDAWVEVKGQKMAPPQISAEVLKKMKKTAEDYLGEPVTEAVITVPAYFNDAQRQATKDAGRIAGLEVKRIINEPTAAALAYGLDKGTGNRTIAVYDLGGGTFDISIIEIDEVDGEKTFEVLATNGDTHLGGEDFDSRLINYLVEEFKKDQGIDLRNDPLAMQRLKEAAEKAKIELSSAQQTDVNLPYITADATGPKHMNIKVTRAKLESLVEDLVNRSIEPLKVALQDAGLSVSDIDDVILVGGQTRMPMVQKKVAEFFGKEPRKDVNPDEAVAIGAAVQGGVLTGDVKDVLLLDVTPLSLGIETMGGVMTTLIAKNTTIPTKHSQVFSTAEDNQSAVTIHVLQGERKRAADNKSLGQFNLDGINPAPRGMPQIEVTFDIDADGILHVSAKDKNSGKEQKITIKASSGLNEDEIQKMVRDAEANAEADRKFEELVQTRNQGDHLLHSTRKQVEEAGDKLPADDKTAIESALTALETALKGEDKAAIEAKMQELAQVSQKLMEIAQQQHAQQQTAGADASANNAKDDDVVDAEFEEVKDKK
T1 sequence (P0A6Y8 whole entry, the tested form may be a part): as above

SMILES	Kd ([1]; ITC, wild-type full-length ADP-bound DnaK, read-out: Kd) [µM]	interaction with ATP-bound DnaK [2]	abundance of Cyp-D in the soluble-protein fraction [3]	Kd [1] [µM]
NS(=O)(=O)C#Cc1ccccc1 [PES, 2-Phenylethynesulfonamide, reference compound]	~6.8	notably reduced	not	
C(#C[P+](c1ccccc1)(c1ccccc1)c1ccccc1)c1ccccc1.[Br-] [PET-16, triphenyl(phenylethynyl)phosphonium bromide]		notably reduced	significantly reduced	~6
